According to patent US7977056B2, “Methods of identifying stimulants for biogenic methane production from hydrocarbon-bearing formations” (Synthetic Genomics, Inc., priority 2008, dated 2011):
“Also recorded” adds a separate entry of the source.

What follows are molecules tested on defined microbial assemblage (assay: Stimulation of methane production by a defined microbial assemblage grown on coal as sole carbon source). Conditions: defined microbial assemblage, in vitro culture with coal as sole carbon source, after stimulation with the substance.
Type: cell-based
Method: The availability of a defined microbial assemblage producing methane from coal in vitro, as well as a suite of strains capable of aerobic coal degradation prompted laboratory experiments where various stimulants were tested for their effect on methane production.
This degradation is stimulated by the addition of oxygen as reactant for the oxygenase-classes of enzymes present in some of the strains included in the DMA.

SMILES	methane production
[HH] [H2, hydrogen]	increased methane production
CC(=O)O [acetate]	increased methane production
OCC(O)CO [glycerol]	increased methane production
O=O [oxygen]	greatest increase in methane production; also recorded: increased methane production
CN(C)C [trimethylamine]	increased methane production

Same assay, conditions: oxygen applied at higher than optimal levels

SMILES	methanogenesis
O=O [oxygen]	represses methanogenesis
